ChEMBL document CHEMBL4118205, “Design, synthesis and biological evaluation of artemisinin derivatives containing fluorine atoms as anticancer agents” (Bioorg Med Chem Lett, 2018)
pIC50: −log10 of the molar value.

How the values were obtained:
U-87 MG [1] = assay: Cytotoxicity against human U87 cells assessed as reduction in cell viability after 72 hrs by MTT assay; type: functional, cell-based, U-87MG ATCC
A549 [2] = assay: Cytotoxicity against human A549 cells assessed as reduction in cell viability after 72 hrs by MTT assay; type: functional, cell-based; conditions: A549, 72 h
MDA-MB-231 [3] = assay: Cytotoxicity against human MDA-MB-231 cells assessed as reduction in cell viability after 72 hrs by MTT assay; type: functional, cell-based; conditions: MDA-MB-231, 72 h
L02 [4] = assay: Cytotoxicity against human L02 cells assessed as reduction in cell viability after 72 hrs by MTT assay; type: functional, cell-based; conditions: L02, 72 h
SH-SY5Y [5] = assay: Cytotoxicity against human SH-SY5Y cells assessed as reduction in cell viability after 72 hrs by MTT assay; type: functional, cell-based
MCF7 [6] = assay: Cytotoxicity against human MCF7 cells assessed as reduction in cell viability after 72 hrs by MTT assay; type: functional, cell-based; conditions: MCF7, 72 h
A-375 = assay: Cytotoxicity against human A375 cells assessed as reduction in cell viability after 72 hrs by MTT assay; type: functional, cell-based; conditions: A-375, 72 h
MCF7 [7] = assay: Cytotoxicity against human MCF7 cells assessed as reduction in cell viability after 24 to 72 hrs by MTT assay; type: functional, cell-based
MDA-MB-231 [8] = assay: Cytotoxicity against human MDA-MB-231 cells assessed as reduction in cell viability after 24 to 72 hrs by MTT assay; type: functional, cell-based
U-87 MG [9] = assay: Cytotoxicity against human U87 cells assessed as reduction in cell viability after 24 to 72 hrs by MTT assay; type: functional, cell-based, U-87MG ATCC
A549 [10] = assay: Cytotoxicity against human A549 cells assessed as reduction in cell viability after 24 to 72 hrs by MTT assay; type: functional, cell-based
SH-SY5Y [11] = assay: Cytotoxicity against human SH-SY5Y cells assessed as reduction in cell viability after 24 to 72 hrs by MTT assay; type: functional, cell-based
L02 [12] = assay: Cytotoxicity against human L02 cells assessed as reduction in cell viability after 24 to 72 hrs by MTT assay; type: functional, cell-based

Row | SMILES | pIC50 (U-87 MG [1]) | pIC50 (A549 [2]) | pIC50 (MDA-MB-231 [3]) | pIC50 (L02 [4]) | pIC50 (SH-SY5Y [5]) | pIC50 (MCF7 [6]) | pIC50 (A-375) | pIC50 (MCF7 [7]) | pIC50 (MDA-MB-231 [8]) | pIC50 (U-87 MG [9]) | pIC50 (A549 [10]) | pIC50 (SH-SY5Y [11]) | pIC50 (L02 [12])
1 | C[C@H]1[C@H](Nc2ccc(SC(F)(F)F)cc2)O[C@@H]2O[C@@]3(C)CC[C@H]4[C@H](C)CC[C@@H]1[C@@]24OO3 | 4.55 | 4.38 | 4.64 | 5.03 | 4.69 | 5.28 | 4.58 | – | – | – | – | – | –
2 | C[C@H]1[C@@H](O)O[C@@H]2O[C@@]3(C)CC[C@H]4[C@H](C)CC[C@@H]1[C@@]24OO3 [ARTENIMOL] | < 4.30 | 4.33 | 4.34 | 4.47 | < 4.30 | < 4.30 | 4.41 | – | – | – | – | – | –
3 | C[C@H]1[C@H](N2CCN(Cc3ccc(F)cc3)CC2)O[C@@H]2O[C@@]3(C)CC[C@H]4[C@H](C)CC[C@@H]1[C@@]24OO3 | < 4.30 | 4.44 | 4.92 | 4.77 | 4.82 | 5.46 | 4.89 | – | – | – | – | – | –
4 | COc1cccc2c1C(=O)c1c(O)c3c(c(O)c1C2=O)C[C@@](O)(C(=O)CO)C[C@@H]3O[C@H]1C[C@H](N)[C@H](O)[C@H](C)O1 [DOXORUBICIN] | – | 5.64 | 5.55 | 6.05 | – | – | 6.40 | – | – | – | – | – | –
5 | C[C@H]1[C@H](N2CCN(c3ccc(F)cc3)CC2)O[C@@H]2O[C@@]3(C)CC[C@H]4[C@H](C)CC[C@@H]1[C@@]24OO3 | 4.59 | < 4.30 | < 4.30 | 4.95 | < 4.30 | 4.54 | < 4.30 | – | – | – | – | – | –
6 | C[C@H]1[C@H](N2CCN(C(=O)Nc3ccc(C(F)(F)F)cc3)CC2)O[C@@H]2O[C@@]3(C)CC[C@H]4[C@H](C)CC[C@@H]1[C@@]24OO3 | 4.82 | 4.68 | 5.24 | 5.40 | 5.49 | 5.57 | 4.82 | – | – | – | – | – | –
7 | CCOC(=O)N1CCN([C@@H]2O[C@@H]3O[C@@]4(C)CC[C@H]5[C@H](C)CC[C@@H]([C@H]2C)[C@@]35OO4)CC1 | – | – | – | – | – | – | – | 4.82 | 4.72 | < 4.30 | 4.70 | < 4.30 | < 4.30
8 | C[C@H]1[C@H](N2CCN(C(=O)Nc3ccc(F)cc3)CC2)O[C@@H]2O[C@@]3(C)CC[C@H]4[C@H](C)CC[C@@H]1[C@@]24OO3 | 4.54 | 4.75 | 4.96 | 4.81 | 5.30 | 5.26 | 5.04 | – | – | – | – | – | –
9 | C[C@H]1[C@H](NCc2ccc(OC(F)(F)F)cc2)O[C@@H]2O[C@@]3(C)CC[C@H]4[C@H](C)CC[C@@H]1[C@@]24OO3 | 4.75 | 4.75 | 4.66 | 4.45 | 5.30 | 4.99 | 4.96 | – | – | – | – | – | –
10 | C[C@@H]1CC[C@H]2[C@@H](C)C(=O)O[C@@H]3O[C@@]4(C)CC[C@@H]1[C@]32OO4 [ARTEMISININ] | < 4.30 | < 4.30 | < 4.30 | < 4.30 | < 4.30 | < 4.30 | < 4.30 | – | – | – | – | – | –
11 | C[C@H]1[C@H](N2CCN(c3cccc(C(F)(F)F)c3)CC2)O[C@@H]2O[C@@]3(C)CC[C@H]4[C@H](C)CC[C@@H]1[C@@]24OO3 | < 4.30 | 4.89 | 4.90 | 5.04 | 4.95 | 5.12 | 4.70 | – | – | – | – | – | –
12 | C[C@H]1[C@H](N2CCN(Cc3cccc(F)c3)CC2)O[C@@H]2O[C@@]3(C)CC[C@H]4[C@H](C)CC[C@@H]1[C@@]24OO3 | < 4.30 | 4.35 | 4.48 | 4.63 | < 4.30 | 5.17 | 4.33 | – | – | – | – | – | –
13 | Cn1nnc2c(C(N)=O)ncn2c1=O [TEMOZOLOMIDE] | < 4.30 | – | – | – | < 4.30 | – | – | – | – | – | – | – | –
14 | C[C@H]1[C@H](N2CCN(c3ccc(C(F)(F)F)cc3)CC2)O[C@@H]2O[C@@]3(C)CC[C@H]4[C@H](C)CC[C@@H]1[C@@]24OO3 | < 4.30 | < 4.30 | < 4.30 | 4.69 | < 4.30 | 4.57 | 4.39 | – | – | – | – | – | –
